This passage reports IC50 results from patent publication US20220370453A1 (Storm Therapeutics Ltd, priority 2019, published 2022).

What is called IC50 is the midpoint of a concentration-inhibition curve. The low end stands for inhibition by little substance, the high end for a need for much substance.

The target in assay [1] is T1, BCDIN3D (Homo sapiens, UniProt Q7Z5W3).
T1 sequence (Q7Z5W3 1-292): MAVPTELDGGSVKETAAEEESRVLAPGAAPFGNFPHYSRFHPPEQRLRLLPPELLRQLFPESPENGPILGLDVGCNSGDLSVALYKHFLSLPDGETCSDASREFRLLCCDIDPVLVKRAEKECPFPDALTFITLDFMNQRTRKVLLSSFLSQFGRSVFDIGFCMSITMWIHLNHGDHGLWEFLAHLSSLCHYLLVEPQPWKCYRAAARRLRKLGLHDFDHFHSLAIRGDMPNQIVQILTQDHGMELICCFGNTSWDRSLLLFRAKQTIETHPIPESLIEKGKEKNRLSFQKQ
Nature of the assay: BCDIN3D InCellPulse thermal stability assay in transfected A549 cells. The assay is classed as cell-based. The conditions noted are these: transiently transfected A549 cells, heat shock 58° C. 15 min. The method, boiled down:
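A549 cells transiently expressing BCDIN3D N-terminally fused to ePL ProLabel tag, 1500 cells/well, pre-incubated 1 h at 37 °C with compound (0.6% DMSO). Heat shock 58 °C for 15 min; remaining soluble fusion detected by split β-galactosidase complementation luminescence.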

The target in assay [2] is T1, BCDIN3D. Nature of the assay: BCDIN3D IC50 RFMS (RapidFire) assay with mini-helix. The conditions noted are these: mini-helix substrate 0.2 μM, SAM 6 μM, 25 nM enzyme. The assay is classed as biochemical. The method, boiled down: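 25 nM enzyme preincubated 10 min at room temperature with compound (1% DMSO) in 25 mM Tris pH 8.0, 10 mM DTT, 1 mM EDTA, 0.03% BSA. Reaction started with 0.2 μM mini-helix plus 6 μM SAM, run 1 h at 37 °C, quenched with TCA; SAH product quantified by RapidFire MS against isotopic SAH standards.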

Turning to `Cn1ncc2c(NC(C)(C)C)nc(NCC(N)C3CCCCC3)nc21` (centres unmarked) [Compound 3.10, N6-(2-amino-2-cyclohexyl-ethyl)-N4-tert-butyl-1-methyl-pyrazolo[3,4-d]pyrimidine-4,6-diamine], the IC50 at BCDIN3D [1] was 123 nM; on BCDIN3D [2], 228 nM.

In the case of `Cn1ncc2c(Nc3ccc(C(F)(F)F)cc3)nc(NCC(N)C3CCCCC3)nc21` (centres unmarked) [Compound 3.11, N6-(2-amino-2-cyclohexyl-ethyl)-1-methyl-N4-[4-(trifluoromethyl)phenyl]pyrazolo[3,4-d]pyrimidine-4,6-diamine], the IC50 was 65.4 nM on BCDIN3D [1] and 101 nM against BCDIN3D [2].

As to `Cn1ncc2c(Nc3ccc(C(F)(F)F)cc3)nc(NCC3(N)CC(F)(F)C3)nc21` [Compound 3.12, 6-N-[(1-amino-3,3-difluorocyclobutyl)methyl]-1-methyl-4-N-[4-(trifluoromethyl)phenyl]pyrazolo[3,4-d]pyrimidine-4,6-diamine], the IC50 was 1570 nM on BCDIN3D [1] and 479 nM against BCDIN3D [2].

For `Cn1ncc2c(Nc3ccc(C(F)(F)F)cc3)nc(NCC(N)C3CC3)nc21` (centres unmarked) [Compound 3.13, 6-N-(2-amino-2-cyclopropylethyl)-1-methyl-4-N-[4-(trifluoromethyl)phenyl]pyrazolo[3,4-d]pyrimidine-4,6-diamine], the 50% inhibitory concentration (IC50) against BCDIN3D [1] is 510 nM; against BCDIN3D [2] it was 180 nM.

For the molecule `Cn1ncc2c(Nc3ccc(C(F)(F)F)cc3)nc(NCC3(N)CCOC3)nc21` (centres unmarked) [Compound 3.14, 6-N-[(3-aminooxolan-3-yl)methyl]-1-methyl-4-N-[4-(trifluoromethyl)phenyl]pyrazolo[3,4-d]pyrimidine-4,6-diamine], the IC50 at BCDIN3D [1] came out at 2410 nM; on BCDIN3D [2], 252 nM.

As to `Cn1ncc2c(Nc3ccc(C(F)(F)F)nc3)nc(NCC3(N)CCOC3)nc21` (centres unmarked) [Compound 3.15, N6-[(3-aminotetrahydrofuran-3-yl)methyl]-1-methyl-N4-[6-(trifluoromethyl)-3-pyridyl]pyrazolo[3,4-d]pyrimidine-4,6-diamine], the values for the IC50 on BCDIN3D [1] and against BCDIN3D [2] were 6540 nM and 1630 nM, respectively.

Consider `Cn1ncc2c(Nc3ccc(C(F)(F)F)cc3)nc(NCC3COCCN3)nc21` (centres unmarked) [Compound 3.16, 1-methyl-N6-[(morpholin-3-yl)methyl]-N4-[4-(trifluoromethyl)phenyl]-1H-pyrazolo[3,4-d]pyrimidine-4,6-diamine], for which the IC50 against BCDIN3D [1] is 60000 nM; at BCDIN3D [2], 9920 nM.

As to `Cn1ncc2c(Nc3ccc(C(F)(F)F)cc3)nc(NCC3(N)CCCC3)nc21` [Compound 3.18, 6-N-[(1-aminocyclopentyl)methyl]-1-methyl-4-N-[4-(trifluoromethyl)phenyl]pyrazolo[3,4-d]pyrimidine-4,6-diamine], the IC50 was determined as 335 nM against BCDIN3D [1] and 88 nM at BCDIN3D [2].

`Cn1ncc2c(Nc3ccc(C(F)(F)F)nc3)nc(NCC3(N)CCCC3)nc21` [Compound 3.19, 6-N-[(1-aminocyclopentyl)methyl]-1-methyl-4-N-[6-(trifluoromethyl)pyridin-3-yl]pyrazolo[3,4-d]pyrimidine-4,6-diamine]: the IC50 against BCDIN3D [1] was 1240 nM; at BCDIN3D [2], 357 nM.

As for `Cn1ncc2c(Nc3ccc(OC(F)F)cc3)nc(NCC3(N)CCCC3)nc21` [Compound 3.20, 6-N-[(1-aminocyclopentyl)methyl]-4-N-[4-(difluoromethoxy)phenyl]-1-methylpyrazolo[3,4-d]pyrimidine-4,6-diamine], the IC50 came out at 724 nM at BCDIN3D [1] and 305 nM against BCDIN3D [2].

`Cn1ncc2c(Nc3ccccc3)nc(NCC3(N)CCCC3)nc21` [Compound 3.21, 6-N-[(1-aminocyclopentyl)methyl]-1-methyl-4-N-phenylpyrazolo[3,4-d]pyrimidine-4,6-diamine]: the IC50 at BCDIN3D [1] was determined as 2000 nM; on BCDIN3D [2], 1440 nM.

Regarding `Cn1ncc2c(Nc3ccc(C#N)cc3)nc(NCC3(N)CCCC3)nc21` [Compound 3.22, 4-[[6-[(1-aminocyclopentyl)methylamino]-1-methylpyrazolo[3,4-d]pyrimidin-4-yl]amino]benzonitrile], the figures for the IC50 at BCDIN3D [1] and against BCDIN3D [2] were 2260 nM and 1800 nM, respectively.

Regarding `Cn1ncc2c(Nc3ccc(OC(F)(F)F)cc3)nc(NCC3(N)CCCC3)nc21` [Compound 3.23, 6-N-[(1-aminocyclopentyl)methyl]-1-methyl-4-N-[4-(trifluoromethoxy)phenyl]pyrazolo[3,4-d]pyrimidine-4,6-diamine], the IC50 was found to be 267 nM against BCDIN3D [1] and 115 nM at BCDIN3D [2].

`[2H]C([2H])([2H])n1ncc2c(Nc3ccc(C(F)(F)F)cc3)nc(NCC3(N)CCC3)nc21` [Compound 3.24, N6-[(1-aminocyclobutyl)methyl]-1-(trideuteriomethyl)-N4-[4-(trifluoromethyl)phenyl]pyrazolo[3,4-d]pyrimidine-4,6-diamine]: the concentration for half-maximal inhibition (IC50) on BCDIN3D [1] was 481 nM; at BCDIN3D [2] it was 45 nM.

As to `Cc1ccc(CNc2nc(NCC(N)CF)nc3c2cnn3C)cc1Cl` (centres unmarked) [Compound 3.25, N6-(2-Amino-3-fluoropropyl)-N4-[(3-chloro-4-methylphenyl)methyl]-1-methyl-1H-pyrazolo[3,4-d]pyrimidine-4,6-diamine], the results for the IC50 at BCDIN3D [1] and at BCDIN3D [2] were 5500 nM and 6170 nM, respectively.

`Cn1ncc2c(Nc3ccc(C(F)(F)F)cc3)nc(NCC(N)CF)nc21` (centres unmarked) [Compound 3.26, 6-N-(2-amino-3-fluoropropyl)-1-methyl-4-N-[4-(trifluoromethyl)phenyl]pyrazolo[3,4-d]pyrimidine-4,6-diamine]: the IC50 against BCDIN3D [1] is 4030 nM; against BCDIN3D [2] it was 3000 nM.

`COCC(N)CNc1nc(NCc2ccc(C)c(Cl)c2)c2cnn(C)c2n1` (centres unmarked) [Compound 3.27, 6-N-(2-amino-3-methoxypropyl)-4-N-[(3-chloro-4-methylphenyl)methyl]-1-methylpyrazolo[3,4-d]pyrimidine-4,6-diamine]: the IC50 at BCDIN3D [1] stood at 4790 nM; at BCDIN3D [2], 4310 nM.

In the case of `Cn1ncc2c(Nc3ccc(C(F)(F)F)cc3)nc(NCC3(N)COC3)nc21` [Compound 3.28, 6-N-[(3-Aminooxetan-3-yl)methyl]-1-methyl-4-N-[4-(trifluoromethyl)phenyl]pyrazolo[3,4-d]pyrimidine-4,6-diamine], the IC50 on BCDIN3D [1] turned out to be 4670 nM; against BCDIN3D [2] it was 383 nM.

In the case of `Cn1ncc2c(Nc3ccccc3)nc(NCC3(N)COC3)nc21` [Compound 3.29, 6-N-[(3-Aminooxetan-3-yl)methyl]-1-methyl-4-N-phenylpyrazolo[3,4-d]pyrimidine-4,6-diamine], the results for the IC50 against BCDIN3D [1] and on BCDIN3D [2] were 60000 nM and 4920 nM, respectively.

`Cc1ccc(CNc2nc(NC3CCCCC3N)nc3c2cnn3C)cc1Cl` (centres unmarked) [Compound 3.30, N6-(2-aminocyclohexyl)-N4-[(3-chloro-4-methylphenyl)methyl]-1-methyl-1H-pyrazolo[3,4-d]pyrimidine-4,6-diamine]: the values for the IC50 on BCDIN3D [1] and on BCDIN3D [2] were 1410 nM and 1140 nM, respectively.

Turning to `[2H]C([2H])([2H])n1ncc2c(NC(C)(C)C)nc(NCC(C)(N)c3ccccc3)nc21` (centres unmarked) [Compound 4.01, N6-(2-Amino-2-phenyl-propyl)-N4-tert-butyl-1-(trideuteriomethyl)pyrazolo[3,4-d]pyrimidine-4,6-diamine], the IC50 on BCDIN3D [1] was 1940 nM; against BCDIN3D [2], 325 nM.

Consider `CCn1ncc2c(NC(C)C)nc(NCC(N)c3ccccc3)nc21` (centres unmarked) [Compound 4.02, 6-N-(2-Amino-2-phenylethyl)-1-ethyl-4-N-propan-2-ylpyrazolo[3,4-d]pyrimidine-4,6-diamine], for which the IC50 turned out to be 5670 nM against BCDIN3D [1] and 4280 nM against BCDIN3D [2].
